# Results reported in patent US11072588B2, “Barbituric acid derivatives comprising cationic and lipophilic groups” (UNIVERSITETET I TROMSØ—NORGES ARKTISKE UNIVERSITET, priority 2017, dated 2021).
# Experiments:
# [1] = Determination of haemolytic activity; assay type: cell-based; settings: human red blood cells (washed, from heparinized fresh blood); human RBCs, 1 h, 37° C.; read-out: RBC: haemolytic activity against human RBCs (EC50)
# Experimental: Hemolysis was determined using a heparinized fraction (1000 IU/mL) of freshly drawn blood. Blood collected in EDTA containing test tubes (Vacutest®, KIMA, Arzergrande, Italy) was used for determination of the hematocrit (hct). The heparinized blood was washed 3× with pre-warmed PBS and adjusted to a final hct of 4%. Derivatives in DMSO (50 mM) were added to a 96-well polypropylene V-bottom plate (NUNC, Fisher Scientific, Oslo, Norway) and serially diluted. The test concentration range was 500-4 μM with DMSO contents ≤1%. A solution of 1% triton X-100 was used as positive control for 100% hemolysis. As negative control a solution of 1% DMSO in PBS buffer was included. No signs of DMSO toxicity were detected. RBCs (1% v/v final concentration) were added to the well plate and incubated at 37° C. and 800 rpm for 1 h. After centrifugation (5 min, 3000 g), 100 μL of each well were transferred to a 96-well flat bottom plate and absorbance was measured at 545 nm with a microplate reader (VersaMax™, Molecular Devices, Sunnyvale, Calif., USA). The percentage of hemolysis was calculated as the ratio of the absorbance in the derivative-treated and surfactant treated samples, corrected for the PBS background. Three independent experiments were performed and EC50 values are presented as averages.
# S. aureus IHT 99040 = assay: MIC, multi-resistant clinical isolate; assay type: cell-based, Staphylococcus aureus; settings: for selectivity index (EC50/MIC): RBC EC50 / MIC; for MIC: Staphylococcus aureus, IHT99040, read-out: Antimicrobial activity (MIC)
# Experimental: (§1) Working solutions of the test derivatives were prepared with up to 100% DMSO and stored at −20° C. If necessary, the solutions were heated to 40-80° C. before testing to facilitate complete dissolution. Double-distilled water was used in all dilutions prepared. […] A microdilution susceptibility test was used for MIC determination according to Clinical and Laboratory Standards Institute, “Methods for Dilution Antimicrobial Sisceptibility Tests for Bacteria That Graw Aerobically”, Approved Standard M07-A9, edition 2012, with modifications as described by Igumnova et al (Bioorg Med Chem, 2016, 24 (22), 5884-5894).
# (§2) Briefly, the bacterial inoculum was adjusted to approximately 2.5-3×10^4 cells/mL in Mueller-Hinton broth (MHB, Difco Laboratories, USA), and incubated in a ratio of 1:1 with test derivatives in polystyrene 96-well flat-bottom microplates (NUNC, Roskilde, Denmark). Positive growth control (without test derivatives) and negative control (without bacteria) were included. The reference antibiotic was oxytetracycline hydrochloride (Sigma Aldrich, Saint Louis, Mo., USA). The microplates were incubated in an EnVision microplate reader (Perkin-Elmer, Turku, Finland) placed in an incubator set to 35° C. for 48 h. The MIC value was defined as the lowest concentration of derivative resulting in no bacterial growth as determined by OD600 measurement. All derivatives were tested in three parallels.
# (§3) The MIC was determined as explained above with some exceptions; working solutions of test derivatives were prepared from concentrated DMSO stocks stored at room temperature, the density of the bacterial inoculum was increased 40× to 1-1.2×10^6 cells/mL, enterococci were incubated in Brain Heart Infusion broth (BHIB, Difco Laboratories, USA), the microplates were incubated for 24 h, and the derivatives were tested in four parallels.
# S. aureus N315 = assay: MIC, multi-resistant clinical isolate; assay type: cell-based, Staphylococcus aureus; settings: for selectivity index (EC50/MIC): RBC EC50 / MIC, S. aureus N315; for MIC: Staphylococcus aureus, N315, read-out: Antimicrobial activity (MIC)
# Experimental: as §1, §2, §3
# S. aureus NCTC 10442 = assay: MIC, multi-resistant clinical isolate; assay type: cell-based, Staphylococcus aureus; settings: for selectivity index (EC50/MIC): RBC EC50 / MIC, S. aureus NCTC 10442; for MIC: Staphylococcus aureus, NCTC10442, read-out: Antimicrobial activity (MIC)
# Experimental: as §1, §2, §3
# S. aureus strain 85/2082 = assay: MIC, multi-resistant clinical isolate; assay type: cell-based, Staphylococcus aureus; settings: for selectivity index (EC50/MIC): RBC EC50 / MIC, S. aureus strain 85/2082; for MIC: Staphylococcus aureus, 85/2082, read-out: Antimicrobial activity (MIC)
# Experimental: as §1, §2, §3
# S. aureus strain WIS = assay: MIC, multi-resistant clinical isolate; assay type: cell-based, Staphylococcus aureus; settings: for selectivity index (EC50/MIC): RBC EC50 / MIC, S. aureus strain WIS; for MIC: Staphylococcus aureus, read-out: Antimicrobial activity (MIC)
# Experimental: as §1, §2, §3
# P. aeruginosa 50692172 = assay: MIC, multi-resistant clinical isolate; assay type: cell-based, Pseudomonas aeruginosa; settings: for MIC: Pseudomonas aeruginosa, read-out: Antimicrobial activity (MIC); for selectivity index (EC50/MIC): RBC EC50 / MIC
# Experimental: as §1, §2, §3
# P. aeruginosa 50692520 = assay: MIC, multi-resistant clinical isolate; assay type: cell-based, Pseudomonas aeruginosa; settings: for MIC: Pseudomonas aeruginosa, read-out: Antimicrobial activity (MIC); for selectivity index (EC50/MIC): RBC EC50 / MIC
# Experimental: as §1, §2, §3
# P. aeruginosa K34-73 = assay: MIC, multi-resistant clinical isolate; assay type: cell-based, Pseudomonas aeruginosa; settings: P. aeruginosa K34-73; for MIC: Pseudomonas aeruginosa, K3473, read-out: Antimicrobial activity (MIC); for selectivity index (EC50/MIC): RBC EC50 / MIC
# Experimental: as §1, §2, §3
# P. aeruginosa K34-7 = assay: MIC, multi-resistant clinical isolate; assay type: cell-based, Pseudomonas aeruginosa; settings: for MIC: Pseudomonas aeruginosa, K347, read-out: Antimicrobial activity (MIC); for selectivity index (EC50/MIC): RBC EC50 / MIC, P. aeruginosa K34-7
# Experimental: as §1, §2, §3
# P. aeruginosa K44-24 = assay: MIC, multi-resistant clinical isolate; assay type: cell-based, Pseudomonas aeruginosa; settings: for MIC: Pseudomonas aeruginosa, K4424, read-out: Antimicrobial activity (MIC); for selectivity index (EC50/MIC): RBC EC50 / MIC
# Experimental: as §1, §2, §3
# K. pneumoniae 50531633 = assay: MIC, multi-resistant clinical isolate; assay type: cell-based, Klebsiella pneumoniae; settings: K. pneumoniae 50531633, resistant to colistin; for MIC: Klebsiella pneumoniae, 24 h, read-out: Antimicrobial activity (MIC); for selectivity index (EC50/MIC): RBC EC50 / MIC
# Experimental: as §1, §2, §3
# K. pneumoniae 50625602 = assay: MIC, multi-resistant clinical isolate; assay type: cell-based, Klebsiella pneumoniae; settings: for MIC: Klebsiella pneumoniae, read-out: Antimicrobial activity (MIC); for selectivity index (EC50/MIC): RBC EC50 / MIC
# Experimental: as §1, §2, §3
# K. pneumoniae 50667959 = assay: MIC, multi-resistant clinical isolate; assay type: cell-based, Klebsiella pneumoniae; settings: for MIC: Klebsiella pneumoniae, read-out: Antimicrobial activity (MIC); for selectivity index (EC50/MIC): RBC EC50 / MIC
# Experimental: as §1, §2, §3
# K. pneumoniae K47-25 = assay: MIC, multi-resistant clinical isolate; assay type: cell-based, Klebsiella pneumoniae; settings: K. pneumoniae K47-25, resistant to colistin; for MIC: Klebsiella pneumoniae, K4725, 24 h, read-out: Antimicrobial activity (MIC); for selectivity index (EC50/MIC): RBC EC50 / MIC
# Experimental: as §1, §2, §3
# K. pneumoniae K66-45 = assay: MIC, multi-resistant clinical isolate; assay type: cell-based, Klebsiella pneumoniae; settings: for MIC: Klebsiella pneumoniae, K6645, read-out: Antimicrobial activity (MIC); for selectivity index (EC50/MIC): RBC EC50 / MIC, K. pneumoniae K66-45
# Experimental: as §1, §2, §3
# [2] = test system: antibiotic susceptible Gram-positive and Gram-negative reference strains; assay: MIC assay, ranges over the reference strains; assay type: cell-based; settings: reference strains, range; read-out: MIC values against the Gram-negative bacteria E. coli and P. aeruginosa
# Experimental: as §1, §2
Compound,EC50 at 1 h [1] [µg/mL],selectivity index (EC50/MIC) (S. aureus IHT 99040),MIC (S. aureus IHT 99040) [µg/mL],selectivity index (EC50/MIC) (S. aureus N315),MIC (S. aureus N315) [µg/mL],selectivity index (EC50/MIC) (S. aureus NCTC 10442),MIC (S. aureus NCTC 10442) [µg/mL],selectivity index (EC50/MIC) (S. aureus strain 85/2082),MIC (S. aureus strain 85/2082) [µg/mL],selectivity index (EC50/MIC) (S. aureus strain WIS),MIC (S. aureus strain WIS) [µg/mL],MIC (P. aeruginosa 50692172) [µg/mL],selectivity index (EC50/MIC) (P. aeruginosa 50692172),MIC (P. aeruginosa 50692520) [µg/mL],selectivity index (EC50/MIC) (P. aeruginosa 50692520),MIC (P. aeruginosa K34-73) [µg/mL],selectivity index (EC50/MIC) (P. aeruginosa K34-73),MIC (P. aeruginosa K34-7) [µg/mL],selectivity index (EC50/MIC) (P. aeruginosa K34-7),MIC (P. aeruginosa K44-24) [µg/mL],also measured
"CC(C)(C)c1cc(CC2(Cc3cc(C(C)(C)C)cc(C(C)(C)C)c3)C(=O)N(CCCCNC(=N)N)C(=O)N(CCCCNC(=N)N)C2=O)cc(C(C)(C)C)c1 [8(iii), 1,1′-(4,4′-(5,5-bis(3,5-di-tert-butylbenzyl)-2,4,6-trioxodihydropyrimidine-1,3(2H,4H)-diyl)bis(butane-4,1-diyl))-diguanidine]",< 4,(<2),2,(<1),4,(<2),2,(<2),2,(<2),2,16,(<0.25),16,(<0.25),8,(<0.5),16,(<0.25),16,selectivity index (EC50/MIC) (P. aeruginosa K44-24): (<0.25); MIC (K. pneumoniae 50531633): 16 µg/mL; selectivity index (EC50/MIC) (K. pneumoniae 50531633): (<0.25); MIC (K. pneumoniae 50625602): 16 µg/mL; selectivity index (EC50/MIC) (K. pneumoniae 50625602): (<0.25); MIC (K. pneumoniae 50667959): 8 µg/mL; selectivity index (EC50/MIC) (K. pneumoniae 50667959): (<0.5); MIC (K. pneumoniae K47-25): 16 µg/mL; selectivity index (EC50/MIC) (K. pneumoniae K47-25): (<0.25); MIC (K. pneumoniae K66-45): 8 µg/mL; selectivity index (EC50/MIC) (K. pneumoniae K66-45): (<0.5); MIC [2]: 4 µg/mL
"N=C(N)NCCCCN1C(=O)N(CCCCNC(=N)N)C(=O)C(Cc2ccc(F)c3ccccc23)(Cc2ccc(F)c3ccccc23)C1=O [8(v), 1,1′-(4,4′-(5,5-bis((4-fluoronaphthalen-1-yl)methyl)-2,4,6-trioxodihydropyrimidine-1,3(2H,4H)-diyl)bis(butane-4,1-diyl))diguanidine]",88,(44),2,(44),2,(44),2,(44),2,(44),2,16,(6),16,(6),8,(11),16,(6),16,selectivity index (EC50/MIC) (P. aeruginosa K44-24): (6); MIC (K. pneumoniae 50531633): 8 µg/mL; selectivity index (EC50/MIC) (K. pneumoniae 50531633): (11); MIC (K. pneumoniae 50625602): 16 µg/mL; selectivity index (EC50/MIC) (K. pneumoniae 50625602): (6); MIC (K. pneumoniae 50667959): 4 µg/mL; selectivity index (EC50/MIC) (K. pneumoniae 50667959): (22); MIC (K. pneumoniae K47-25): 8 µg/mL; selectivity index (EC50/MIC) (K. pneumoniae K47-25): (11); MIC (K. pneumoniae K66-45): 4 µg/mL; selectivity index (EC50/MIC) (K. pneumoniae K66-45): (22); MIC [2]: 1 to 4 µg/mL
